Results on eight molecules are retold here after paper PMC8538066, “Purification and Identification of Novel Xanthine Oxidase Inhibitory Peptides Derived from Round Scad (Decapterus maruadsi) Protein Hydrolysates” (Marine Drugs, 2021).

Marks after values point to notes of the source that are not given here.

For experiment [1], the target named is T1, xanthine oxidase (XO) (Bos taurus, UniProt P80457).
T1 construct: purchased Sigma Chemical Co. (St. Louis, MO, USA)
Nature of the experiment: Reversibility and type of XO inhibition (v vs enzyme plots; Lineweaver-Burk plots). In kind it is biochemical. The conditions noted are these: for type of XO inhibition: Lineweaver-Burk, peptide 0 and 5 mM, XO 0.05 U/mL, xanthine 0-0.4 mM, Km increased, Vmax decreased; for reversibility of XO inhibition: inhibitor 0, 5, 10 and 20 mM, XO 0 to 0.1 U/mL, xanthine 0.4 mM, 37 °C 30 min, pH 7.5. Here is the method: The plots of ν (ΔOD290nm/min) versus the XO (U/mL) at different concentrations of the inhibitors (peptides) were constructed to determine the reversibility of inhibitory behavior on XO [29]. All samples were dissolved in 20 mM sodium carbonate buffer (pH 7.5). Inhibitor solution (0, 5, 10 and 20 mM) and XO solution (from 0 to 0.1 U/mL) were mixed and incubated at 37 °C for 30 min, and the concentration of the substrate xanthine was kept constant at 0.4 mM. The absorbance at 290 nm was then determined. ν is the initial enzymatic reaction rate of the reaction, which was investigated using the same method for the XO inhibitory activity assay.
The type of the inhibition of XO activity by the inhibitors (peptides) was investigated using Lineweaver and Burk kinetic analysis. It was performed via evaluating the initial rate of reaction in the presence and absence of inhibitors at different xanthine concentration. Briefly, the peptide (0 and 5 mM) and XO (0.05 U/mL) were mixed and incubated in the buffer (20 mM sodium carbonate buffer, pH 7.5) for 30 min at 37 °C. Subsequently, different xanthine concentrations (0, 0.05, 0.1, 0.2 and 0.4 mM) were successively added into the solutions. Then, the dynamic changes of the absorbance at 290 nm were recorded, and ν was calculated using the same method above. Km and Vmax values, as corresponding kinetic parameters, were obtained from the Lineweaver and Burk double reciprocal plots.

The target in experiment [2] is T1, xanthine oxidase (XO). The experiment is described as follows: Fluorescence quenching of XO (Stern-Volmer analysis). Type of experiment: binding. Particulars: for Kq (quenching rate constant) / Ksv (Stern-Volmer quenching constant): T 298 K; for Kq (quenching rate constant): Kq = Ksv/τ0, τ0 approximately 10^−8 s; for Ksv (Stern-Volmer quenching constant): XO 0.05 U/mL, peptide 0 to 20.0 × 10^−4 M, excitation 280 nm; for fluorescence quenching mechanism of XO: from Kq versus the collisional quenching threshold. Here is the method:
Fluorescence spectra were measured on an F-7000 Spectrofluorimeter (Hitachi Ltd., Ibaraki, Japan) with a 1.0 cm quartz cell and a thermostatic bath. Briefly, 2 mL XO (0.05 U/mL) was titrated by continuous addition of peptides solution (to final concentrations ranging from 0 to 20.0 × 10^−4 M). Then, the obtained mixture was properly mixed and equilibrated for 5 min. The slit widths for excitation and emission were set to 2.5 nm. The fluorescence emission spectra were then measured in the emission wavelength range from 300 to 500 nm, under 280 nm excitation wavelengths. The following Stern-Volmer equation was used to analyze the fluorescence quenching:F0/F = 1 + Ksv [C] = 1 + Kq τ0 [C](3) where F0 and F represent the steady-state fluorescence intensities in the absence and presence of quencher, respectively. Ksv is the Stern-Volmer quenching constant. [C] is the quencher concentration. Kq is the quenching rate constant of biomolecule. Kq = Ksv/τ0, τ0 is the average lifetime of biomolecule in the absence of quencher and its value is approximately 10^−8 s. Ksv used to be estimated by linear regression plot slope of F0/F versus.

Experiment [3] addresses T1, xanthine oxidase (XO). Nature of the experiment: XO inhibitory activity assay (rate of uric acid formation, absorbance 290 nm). In kind it is biochemical. The conditions noted are these: peptide 5 mM; XO 0.05 U/mL, pre-incubation 37 °C 30 min, xanthine 0.42 mM, 20 mM sodium carbonate buffer pH 7.5, 290 nm; each sample tested three times. Here is the method: The XO inhibitory activity was measured by quantifying the rate of uric acid produced in the enzyme-catalyzed reaction. All samples were dissolved in 20 mM sodium carbonate buffer at pH 7.5. […] During the reaction, the dynamic changes of the absorbance of the sample were continuously recorded at 290 nm. Each sample was tested three times. The XO inhibitory activity was calculated using the following formula:Inhibition (%) = (V1 − V2)/V1 × 100%(1) where V1 is the initial enzymatic reaction rate of the blank group, V2 is the initial enzymatic reaction rate of sample group.

Experiment [4] deals with Xanthine oxidase (UniProt P80457).
For experiment [5] the target is unchanged. Nature of the experiment: other fluorescence titration; quenching of the intrinsic fluorescence of XO (2 mL, 0.05 U/mL) titrated with peptide to 0-20.0 x 10^-4 M; equilibrated 5 min; excitation 280 nm, emission 300-500 nm; 298 K; Stern-Volmer analysis.

T1 sequence (P80457 whole entry): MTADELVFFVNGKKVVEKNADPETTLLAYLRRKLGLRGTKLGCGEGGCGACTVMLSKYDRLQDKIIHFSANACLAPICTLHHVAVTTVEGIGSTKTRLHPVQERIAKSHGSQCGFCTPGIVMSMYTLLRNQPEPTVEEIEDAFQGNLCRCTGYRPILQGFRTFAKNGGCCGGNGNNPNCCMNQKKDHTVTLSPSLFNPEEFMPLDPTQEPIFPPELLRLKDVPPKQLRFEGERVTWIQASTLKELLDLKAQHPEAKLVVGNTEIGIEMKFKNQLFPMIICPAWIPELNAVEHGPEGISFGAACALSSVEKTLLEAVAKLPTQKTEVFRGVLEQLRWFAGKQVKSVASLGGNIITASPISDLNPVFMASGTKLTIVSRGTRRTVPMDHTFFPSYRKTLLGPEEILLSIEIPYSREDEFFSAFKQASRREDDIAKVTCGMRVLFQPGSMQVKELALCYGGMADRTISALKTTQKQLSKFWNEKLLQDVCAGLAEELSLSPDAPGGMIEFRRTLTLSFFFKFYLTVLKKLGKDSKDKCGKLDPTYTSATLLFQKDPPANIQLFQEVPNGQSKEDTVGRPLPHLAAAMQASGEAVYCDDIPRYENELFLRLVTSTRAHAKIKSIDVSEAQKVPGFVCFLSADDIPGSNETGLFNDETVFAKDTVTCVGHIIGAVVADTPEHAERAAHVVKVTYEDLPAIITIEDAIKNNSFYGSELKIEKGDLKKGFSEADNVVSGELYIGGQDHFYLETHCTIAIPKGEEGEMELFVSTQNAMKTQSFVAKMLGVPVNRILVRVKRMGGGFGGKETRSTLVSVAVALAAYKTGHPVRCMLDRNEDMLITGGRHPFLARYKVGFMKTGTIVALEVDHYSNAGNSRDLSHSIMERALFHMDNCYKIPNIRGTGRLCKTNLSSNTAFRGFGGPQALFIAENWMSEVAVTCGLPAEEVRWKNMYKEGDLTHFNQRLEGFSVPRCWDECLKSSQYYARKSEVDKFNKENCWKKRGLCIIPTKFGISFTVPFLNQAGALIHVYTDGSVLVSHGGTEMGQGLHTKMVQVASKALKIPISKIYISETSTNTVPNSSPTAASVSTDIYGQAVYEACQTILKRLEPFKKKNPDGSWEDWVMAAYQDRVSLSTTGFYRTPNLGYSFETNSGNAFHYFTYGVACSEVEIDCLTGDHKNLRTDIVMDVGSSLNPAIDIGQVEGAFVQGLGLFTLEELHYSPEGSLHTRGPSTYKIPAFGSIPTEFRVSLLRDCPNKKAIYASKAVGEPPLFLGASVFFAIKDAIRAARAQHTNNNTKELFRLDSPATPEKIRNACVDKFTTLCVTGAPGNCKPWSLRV
Sequence of Xanthine oxidase (P80457 2-1332): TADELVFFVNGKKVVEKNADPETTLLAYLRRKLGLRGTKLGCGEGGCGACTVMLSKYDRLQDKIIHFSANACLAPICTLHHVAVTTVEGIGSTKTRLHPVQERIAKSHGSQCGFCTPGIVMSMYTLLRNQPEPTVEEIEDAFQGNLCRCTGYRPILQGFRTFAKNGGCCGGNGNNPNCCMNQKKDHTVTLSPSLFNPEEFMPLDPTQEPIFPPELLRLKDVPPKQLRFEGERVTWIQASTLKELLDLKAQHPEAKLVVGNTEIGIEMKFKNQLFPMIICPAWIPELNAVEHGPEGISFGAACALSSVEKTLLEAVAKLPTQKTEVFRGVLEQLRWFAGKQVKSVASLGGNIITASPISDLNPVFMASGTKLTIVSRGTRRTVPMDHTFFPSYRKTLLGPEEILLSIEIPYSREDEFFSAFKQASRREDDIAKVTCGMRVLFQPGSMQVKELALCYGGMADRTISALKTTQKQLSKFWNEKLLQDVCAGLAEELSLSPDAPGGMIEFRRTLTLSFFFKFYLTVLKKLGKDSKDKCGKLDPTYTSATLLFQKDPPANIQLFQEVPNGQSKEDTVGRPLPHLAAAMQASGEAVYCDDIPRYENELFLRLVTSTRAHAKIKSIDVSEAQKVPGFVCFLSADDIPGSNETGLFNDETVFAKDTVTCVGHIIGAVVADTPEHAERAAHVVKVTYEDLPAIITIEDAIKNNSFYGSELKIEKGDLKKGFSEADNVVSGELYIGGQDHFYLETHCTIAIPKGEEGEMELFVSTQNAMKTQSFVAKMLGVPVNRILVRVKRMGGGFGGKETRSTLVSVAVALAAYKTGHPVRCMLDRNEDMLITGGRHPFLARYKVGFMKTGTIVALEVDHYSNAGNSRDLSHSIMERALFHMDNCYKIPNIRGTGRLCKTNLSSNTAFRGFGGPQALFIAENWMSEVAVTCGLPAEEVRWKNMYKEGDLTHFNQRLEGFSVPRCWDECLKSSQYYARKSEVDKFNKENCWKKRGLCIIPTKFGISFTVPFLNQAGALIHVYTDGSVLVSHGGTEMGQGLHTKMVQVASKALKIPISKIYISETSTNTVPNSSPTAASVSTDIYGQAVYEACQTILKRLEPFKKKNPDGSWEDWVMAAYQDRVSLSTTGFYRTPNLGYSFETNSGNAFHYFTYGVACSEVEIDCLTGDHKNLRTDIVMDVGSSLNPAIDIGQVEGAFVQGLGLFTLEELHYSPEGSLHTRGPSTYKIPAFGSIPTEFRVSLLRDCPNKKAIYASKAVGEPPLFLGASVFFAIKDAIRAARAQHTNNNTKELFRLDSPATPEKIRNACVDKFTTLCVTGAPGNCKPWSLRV

For the molecule “FPFP [tetrapeptide identified from round scad hydrolysate fraction F2, chemically synthesized]”, on xanthine oxidase (XO) [1], the “type of XO inhibition” value was “mixed inhibitor” and the “reversibility of XO inhibition” value was “reversible”. Moreover, on xanthine oxidase (XO) [2], the “Kq (quenching rate constant)” value stood at 5.608e+11 M⁻¹ s⁻¹, the “Ksv (Stern-Volmer quenching constant)” value stood at 5608 M⁻¹ and the “fluorescence quenching mechanism of XO” value is listed as “static”. Further, the “XO Inhibitory Activity (%)” value at xanthine oxidase (XO) [3] is on record as 20.09 ± 2.41 ^a %.
On to “FPSV [tetrapeptide identified from round scad hydrolysate fraction F2, chemically synthesized]”, for which, at xanthine oxidase (XO) [1], the “type of XO inhibition” value was “mixed inhibitor” and the “reversibility of XO inhibition” value is listed as “reversible”. Besides, at xanthine oxidase (XO) [2], the “Kq (quenching rate constant)” value worked out at 5.42e+10 M⁻¹ s⁻¹, the “Ksv (Stern-Volmer quenching constant)” value was determined as 542 M⁻¹ and the “fluorescence quenching mechanism of XO” value is recorded as “static”. Besides, the “XO Inhibitory Activity (%)” value on xanthine oxidase (XO) [3] is listed as 22.61 ± 1.81 ^a %.
For the molecule “KGFP [tetrapeptide identified from round scad hydrolysate fraction F2, chemically synthesized]”, the “XO Inhibitory Activity (%)” value at xanthine oxidase (XO) [3] was 5.43 ± 0.20 ^c %.
Still for that read-out and setting: as for “WPDGR [pentapeptide identified from round scad hydrolysate fraction F2, chemically synthesized]”, the figure is 16.21 ± 0.78 ^b %.

B1: KGFP (peptide)
peptide: KGFP
Turning to B1, the XO inhibitory activity (%) at 5 mM peptide (rate of uric acid formation, absorbance at 290 nm) with Xanthine oxidase [4] is 5.43%.

B2: FPSV (peptide)
peptide: FPSV
With B2, the XO inhibitory activity (%) at 5 mM peptide (rate of uric acid formation, absorbance at 290 nm) with Xanthine oxidase [4] turned out to be 22.6%. In the experiment with Xanthine oxidase [5], the Kq (quenching rate constant) was 5.42e+10 M⁻¹ s⁻¹ and the Ksv (Stern-Volmer quenching constant) was determined as 542 M⁻¹.

B3: WPDGR (peptide)
peptide: WPDGR
Molecule B3 showed an XO inhibitory activity (%) at 5 mM peptide (rate of uric acid formation, absorbance at 290 nm) with Xanthine oxidase [4] of 16.2%.

B4: FPFP (peptide)
peptide: FPFP
Turning to B4, the XO inhibitory activity (%) at 5 mM peptide (rate of uric acid formation, absorbance at 290 nm) with Xanthine oxidase [4] came out at 20.1%. In the experiment with Xanthine oxidase [5], the Kq (quenching rate constant) is 5.61e+11 M⁻¹ s⁻¹ and the Ksv (Stern-Volmer quenching constant) was found to be 5610 M⁻¹.
